Laboratory results: PMC11784839, “Monoaminergic neurotransmitters are bimodal effectors of tau aggregation” (Science Advances, 2025)

Target: tau (Homo sapiens, UniProt P10636)
Experiment: MCE Phenols Library screening, tau biosensor cell seeding assay (AvZ)
Format: cell-based
Details: for Z repl 1 / Z Repl 2: Z score; for Z repl 1 / raw data 1: replicate 1; for Z Repl 2 / raw data 2: replicate 2; for AvZ (average z score of seeding, SDs from the mean level of seeding): 10 μM phenol in cell cultures, AD brain homogenate preincubated 16 hours, two biological replicates, positive = catalyzes seeding, negative = inhibits
[1] = average Z score of two replicates, Phenols Library screen
[2] = average Z score of the two replicates, MCE Phenols Library screen
[3] = average puncta of the two replicates
[4] = average Z score of the two replicates, tau seeding
[5] = average Z score of the two replicates, tau biosensor seeding, MCE Phenols Library screen

tau, sequence (P10636 623-695 limits assumed): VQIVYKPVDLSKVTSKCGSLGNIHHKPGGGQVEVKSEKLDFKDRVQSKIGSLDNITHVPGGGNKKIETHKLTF

Structure (SMILES)	Z repl 1	Z Repl 2	av Z [1]	av puncta (average of raw data 1 and 2)	raw data 1 (puncta)	raw data 2 (puncta)	av Z [2]	av puncta [3]	av Z [4]	raw data 1 (raw puncta)	raw data 2 (raw puncta)	av Z [5]	AvZ (average z score of seeding, SDs from the mean level of seeding)
C[C@@H]1O[C@@H](OC[C@H]2O[C@@H](OCCc3ccc(O)c(O)c3)[C@H](O)[C@@H](O)[C@@H]2OC(=O)/C=C/c2ccc(O)c(O)c2)[C@H](O)[C@H](O)[C@H]1O [Forsythiaside A]	0.23	-0.492	-0.131	18310.1	29105.9	7514.37							
COc1cc2ccc(=O)oc2c(O)c1OC [Fraxidin]	0.561	-0.256		21554.2	33079.8	10028.5			0.152				
COc1cc2ccc(=O)oc2c(O[C@@H]2O[C@H](CO)[C@@H](O)[C@H](O)[C@H]2O)c1O [Fraxin]	0.183	-0.668					-0.243	17088		28547.2	5628.78		
O.O=C(O)c1cc(O)c(O)c(O)c1 [Gallic acid (hydrate)]	-1.396	-1.097		5320.33	9587.18	1053.49							-1.246
O=C(O)c1cc(O)c(O)c(O)c1 [Gallic acid]	-2.072	-1.182		803.018	1468.86	137.18							-1.627
CC(C)=CCC/C(C)=C/Cc1c(O)c(CC=C(C)C)c2c(c1O)C(=O)C1=C[C@@H]3C[C@H]4C(C)(C)O[C@@](C/C=C(/C)C(=O)O)(C3=O)[C@@]14O2 [Gambogenic acid]							-1.587						
CC(C)=CCC[C@]1(C)C=Cc2c(O)c3c(c(CC=C(C)C)c2O1)O[C@]12C(=C[C@@H]4C[C@H]1C(C)(C)O[C@@]2(C/C=C(/C)C(=O)O)C4=O)C3=O [Gambogic acid]	-2.192	-0.952		1315.22	33.834	2596.6	-1.572						-1.57
COc1ccc(-c2cc(=O)c3c(O)c(OC)c(OC)c(OC)c3o2)cc1 [Gardenin B]	0.816	0.967		29624.1	36150	23098.1						0.892	
OCc1ccc(O[C@@H]2O[C@H](CO)[C@@H](O)[C@H](O)[C@H]2O)cc1 [Gastrodin]	-1.05	-0.621		9937.48	13738.4	6136.55	-0.836						
O=C1O[C@H]2[C@@H]3OC(=O)c4cc(O)c(O)c(O)c4-c4c(cc(O)c(O)c4O)C(=O)OC[C@H]2O[C@@H](OC(=O)c2cc(O)c(O)c(O)c2)[C@@H]3OC(=O)c2cc(O)c(O)c3c2[C@@H]2C1=CC(=O)[C@](O)(O3)C2(O)O [Geraniin]	-2.121	-1.184		501.022	880.948	121.096	-1.653						
CCCCCC/C=C\CCCCCCCCCc1cccc(O)c1C(=O)O [Ginkgolic acid C17:1]	0.386	0.198		22931	30979.1	14882.8							0.292
CC1(C)C=Cc2c(ccc3c2OC[C@@H](c2ccc(O)cc2O)C3)O1 [Glabridin]	0.624	0.805		27603.9	33843.5	21364.3			0.715				
Oc1cc(O)cc(/C=C/c2c(O)cccc2O)c1 [Gnetol]	-2.02	-1.135		1372.64	2096.46	648.824	-1.577						
Cc1cc2c(C(C)C)c(O)c(O)c(C=O)c2c(O)c1-c1c(C)cc2c(C(C)C)c(O)c(O)c(C=O)c2c1O [Gossypol]	-2.171	-0.607		3285.13	287.373	6282.89	-1.389						

Second part, led by results:

Z repl 1	Z Repl 2	av Z [1]	av puncta (average of raw data 1 and 2)	raw data 1 (puncta)	raw data 2 (puncta)	av Z [2]	av puncta [3]	av Z [4]	raw data 1 (raw puncta)	raw data 2 (raw puncta)	av Z [5]	Structure (SMILES)	AvZ (average z score of seeding, SDs from the mean level of seeding)
-1.102	-0.666		9388.55	13120.4	5656.67	-0.884						C[C@@H]1O[C@@H](OC[C@H]2O[C@@H](OCCc3ccc(O)c(O)c3)[C@H](O)[C@@H](OC(=O)/C=C/c3ccc(O)c(O)c3)[C@@H]2O)[C@H](O)[C@H](O)[C@H]1O [Forsythoside I]	
-0.275	-0.769			23050.6	4555.69	-0.522	13803.1					COc1cc2ccc(=O)oc2c(O)c1O [Fraxetin]	
0.212	-0.203	0.004	19744.8	28893.6	10595.9							O=c1c(O)c(-c2ccccc2)oc2cc(O)cc(O)c12 [Galangin]	
-0.442	-0.111					-0.277	16310.3		21043.4	11577.2		CC(C)=CCc1c(O)cc2oc3cc(O)c(O)c(CC=C(C)C)c3c(=O)c2c1O [Gamma-Mangostin]	
0.361	0.231		22958.3	30681.6	15235.1			0.296				O=c1c(-c2ccc(O)cc2)coc2cc(O)cc(O)c12 [Genistein]	
0.673	0.138		24334.9	34427	14242.8			0.406				O=c1c(-c2ccc(O)cc2)coc2cc(O[C@@H]3O[C@H](CO)[C@@H](O)[C@H](O)[C@H]3O)cc(O)c12 [Genistin]	
1.231	0.655		30446.8	41129.3	19764.4						0.943	COc1cc(O)c2c(=O)cc(-c3ccc(O)cc3)oc2c1 [Genkwanin]	
0.123	-0.524					-0.2	17498.7		27830.8	7166.64		COc1cc2c(=O)c(-c3ccc(O)cc3)coc2cc1O [Glycitein]	
0.796	0.821		28718.5	35905.3	21531.6						0.808	COc1c(CC=C(C)C)c(O)cc2oc(=O)c(-c3ccc(O)cc3O)cc12 [Glycycoumarin]	
-0.561	-0.884			19618.8	3323.85	-0.722	11471.3					O=c1c(O)c(-c2ccc(O)c(O)c2)oc2c(O[C@@H]3O[C@H](CO)[C@@H](O)[C@H](O)[C@H]3O)c(O)cc(O)c12 [Gossypin]	
